In patent US20250154109A1, “SODIUM CHANNEL BLOCKING COMPOUNDS, DERIVATIVES THEREOF, AND METHODS OF THEIR USE” (LATIGO BIOTHERAPEUTICS, INC, priority 2022, published 2025) one finds IC50 data, which are given here for 21 compounds.

Molecules are shown by their SMILES. Where a name gives a salt, the structure may show the parent alone. Read-outs that look alike come from different tables or passages of the source.

The assay concerns the target human Nav1.8 (Homo sapiens, UniProt Q9Y5Y9). Briefly: SyncroPatch384PE assay (automated patch clamp). Format: cell-based. Conditions: human Nav1.8/b3 CHO cells. The procedure:
Compounds were tested on recombinant human Nav1.8/b3 stably transfected CHO cells using the SyncroPatch384PE system (Nanion Technologies), an automated patch clamp device. Cells were cultured at 37° C./5% CO2 in Ham's F-12 supplemented with 10% fetal bovine serum, 100 U/mL penicillin G sodium, […] streptomycin sulfate and selection antibiotics (0.01 mg/mL Blasticidin, 0.4 mg/mL Zeocin and 0.25 mg/mL Hygromycin). On the day of the recordings, cells in culture dishes were washed twice with Hank's Balanced Salt Solution (HBSS) and treated with Accutase for approximately 20 minutes. Immediately before use in the SynchroPatch384PE using an 8-hole NPC-384 chip, the cells were washed in HBSS to remove the Accutase and re-suspended in extracellular solution. All experiments were performed at ambient temperature. Intracellular solution contained (mM): CsCl, 50; CsF, 90; MgCl2, 5; EGTA, 1; HEPES, 10; pH adjusted to 7.2 with CsOH. Extracellular solution contained (mM): NaCl, 137; KCl, 4.0; CaCl2), 3.8; MgCl2, 1; HEPES, 10; Glucose, 10; pH adjusted to 7.4 with NaOH. 100 nM tetrodotoxin (TTX) was added to the extracellular solution to block endogenous TTX-sensitive sodium currents.
Compounds were tested in quadruplicate in 0.3% DMSO and 0.03% pluronic Acid. Compounds were diluted 1:3.33 in extracellular solution to create an 8-point concentration response curve. Each plate contained a historical positive control and up to ten compounds. 300 μM tetracaine and 0.3% DMSO+0.03% pluronic acid were used as high and low controls respectively.
Whole cell patch clamp recordings were conducted according to Nanion's standard procedure for SyncroPatch384PE®. Cells were held at a holding potential of −120 mV. A depolarization step to 10 mV for 30 ms was applied (P1 measurement), followed by a hyperpolarization step to −100 mV for 100 ms. An inactivation step at −35 mV for 10 sec was applied before stepping to −100 mV for 20 ms, followed by a step to 10 mV for 30 ms (P2 measurement) and then back to −100 mV for 30 ms. Sweep interval was 15 sec. Following establishment of the whole-cell configuration in extracellular solution, cells were washed in extracellular solution containing 0.3% DMSO and 0.03% pluronic acid to stabilize the baseline current. Compounds were then applied by the SynchroPatch384 PE system into each well and the current was recorded for five minutes in extracellular solution, followed by application of tetracaine to achieve full block at the end of experiment. The potency of the compounds was assessed on two read-outs, resting state block (P1 measurement) or inactivated state block (P2 measurement) to obtain IC50 values. Values were normalized to high (tetracaine) and low (DMSO+pluronic acid) controls.
Examples 1 to 219 and Examples 225 to 236 are assayed using SyncroPatch384PE assay described above.
For orientation: The patch-clamp technique gives a direct electrical read-out from membranes.

Where [1] appears, read: inactivated state block (P2 measurement), read-out: P2 IC50.
Where [2] appears, read: resting state block (P1 measurement), read-out: P1 IC50.

Sequence of human Nav1.8 (Q9Y5Y9 whole entry): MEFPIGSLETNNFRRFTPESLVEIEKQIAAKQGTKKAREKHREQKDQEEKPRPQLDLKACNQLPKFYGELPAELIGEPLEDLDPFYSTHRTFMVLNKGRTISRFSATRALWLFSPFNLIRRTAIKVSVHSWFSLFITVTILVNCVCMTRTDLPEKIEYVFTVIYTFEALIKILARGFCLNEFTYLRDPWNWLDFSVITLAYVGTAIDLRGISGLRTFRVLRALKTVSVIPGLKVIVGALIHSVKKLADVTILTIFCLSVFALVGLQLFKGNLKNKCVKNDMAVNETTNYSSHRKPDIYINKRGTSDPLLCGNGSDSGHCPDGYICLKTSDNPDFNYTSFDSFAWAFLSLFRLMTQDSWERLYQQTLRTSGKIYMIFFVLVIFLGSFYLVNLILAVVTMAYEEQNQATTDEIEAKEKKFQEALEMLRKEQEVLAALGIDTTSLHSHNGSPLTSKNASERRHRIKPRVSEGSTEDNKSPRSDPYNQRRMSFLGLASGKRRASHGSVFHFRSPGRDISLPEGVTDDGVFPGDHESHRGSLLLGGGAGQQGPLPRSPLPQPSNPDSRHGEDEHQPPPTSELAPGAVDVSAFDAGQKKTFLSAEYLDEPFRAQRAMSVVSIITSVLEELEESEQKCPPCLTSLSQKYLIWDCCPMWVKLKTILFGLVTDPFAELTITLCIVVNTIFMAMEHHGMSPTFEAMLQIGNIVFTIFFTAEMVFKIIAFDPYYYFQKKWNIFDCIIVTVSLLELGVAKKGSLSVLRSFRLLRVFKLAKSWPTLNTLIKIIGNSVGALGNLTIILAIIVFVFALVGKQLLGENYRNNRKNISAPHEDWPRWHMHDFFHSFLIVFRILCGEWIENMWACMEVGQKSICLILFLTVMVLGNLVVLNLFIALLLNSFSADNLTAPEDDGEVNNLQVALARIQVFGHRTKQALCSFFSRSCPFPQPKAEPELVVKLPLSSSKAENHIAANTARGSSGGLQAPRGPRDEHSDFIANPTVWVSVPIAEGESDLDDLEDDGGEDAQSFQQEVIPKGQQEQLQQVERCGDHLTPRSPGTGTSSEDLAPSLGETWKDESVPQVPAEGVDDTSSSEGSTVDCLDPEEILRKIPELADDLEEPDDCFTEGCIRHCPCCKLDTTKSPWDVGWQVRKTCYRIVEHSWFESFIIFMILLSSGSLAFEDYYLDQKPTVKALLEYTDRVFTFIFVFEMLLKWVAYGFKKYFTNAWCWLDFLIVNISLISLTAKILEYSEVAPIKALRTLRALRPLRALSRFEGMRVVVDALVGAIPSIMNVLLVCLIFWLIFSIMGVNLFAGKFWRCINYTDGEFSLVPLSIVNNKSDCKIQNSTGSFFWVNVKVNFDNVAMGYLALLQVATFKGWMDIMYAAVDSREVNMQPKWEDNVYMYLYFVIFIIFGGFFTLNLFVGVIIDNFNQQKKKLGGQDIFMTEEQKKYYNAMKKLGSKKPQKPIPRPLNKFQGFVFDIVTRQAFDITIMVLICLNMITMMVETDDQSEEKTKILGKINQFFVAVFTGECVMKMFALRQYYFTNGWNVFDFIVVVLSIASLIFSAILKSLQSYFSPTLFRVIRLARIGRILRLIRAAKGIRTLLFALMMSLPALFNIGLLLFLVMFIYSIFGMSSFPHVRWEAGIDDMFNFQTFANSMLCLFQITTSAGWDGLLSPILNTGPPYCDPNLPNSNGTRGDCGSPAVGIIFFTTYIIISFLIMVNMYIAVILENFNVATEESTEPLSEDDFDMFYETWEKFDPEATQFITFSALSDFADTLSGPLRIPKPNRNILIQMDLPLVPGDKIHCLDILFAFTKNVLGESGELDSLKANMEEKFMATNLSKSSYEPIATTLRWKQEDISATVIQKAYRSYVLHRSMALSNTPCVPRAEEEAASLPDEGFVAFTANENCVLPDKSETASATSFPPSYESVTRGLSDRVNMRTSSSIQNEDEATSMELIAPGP

Consider `Cc1c(-c2ccc(F)c(F)c2)cnc(N2CCCC(F)(F)CC2)c1C(=O)Nc1cccc([S@](C)(=N)=O)c1` [Example 59, (R)-2-(4,4-difluoroazepan-1-yl)-5-(3,4-difluorophenyl)-4-methyl-N-(3-(S-methylsulfonimidoyl)phenyl)nicotinamide], for which the IC50 (in general, the point on the concentration scale where inhibition reaches its midpoint) runs as follows: under setting [1], at most 5 nM; under setting [2], at most 5 nM.

With `Cc1nc(N2CCCC(F)(F)CC2)c(C(=O)Nc2cccc(S(C)(=N)=O)c2)cc1C(F)(F)F` (stereo not drawn) [Example 3, 2-(4,4-difluoroazepan-1-yl)-6-methyl-N-(3-(S-methylsulfonimidoyl)phenyl)-5-(trifluoromethyl)nicotinamide], the IC50 reads like this: under setting [1], at most 5 nM; under setting [2], at most 5 nM.

Turning to `Cc1c(C(F)(F)F)nnc(N2CCCCCC2)c1C(=O)N=S(C)(=O)c1cccc(N)c1` (stereo not drawn) [Example 8, N-((3-aminophenyl)(methyl)(oxo)-λ^6-sulfaneylidene)-3-(azepan-1-yl)-5-methyl-6-(trifluoromethyl)pyridazine-4-carboxamide], the IC50 reads like this: under setting [1], above 200 nM; under setting [2], above 200 nM.

For the compound `CNCC(=O)N=[S@](C)(=O)c1cccc(NC(=O)c2c(N3CCCC(F)(F)CC3)ncc(-c3ccc4c(c3)OCCO4)c2C)c1` [Example 48, (R)-2-(4,4-difluoroazepan-1-yl)-5-(2,3-dihydrobenzo[b][1,4]dioxin-6-yl)-4-methyl-N-(3-(S-methyl-N-(methylglycyl)sulfonimidoyl)phenyl)nicotinamide], the IC50 was at most 5 nM under setting [1] and at most 5 nM under setting [2].

In the case of `Cc1c(-c2ccc(F)cc2)cnc(N2CCCC(F)(F)CC2)c1C(=O)Nc1cccc(S(C)(=N)=O)c1` (stereo not drawn) [Example 88, 2-(4,4-difluoroazepan-1-yl)-5-(4-fluorophenyl)-4-methyl-N-(3-(S-methylsulfonimidoyl)phenyl)nicotinamide], the IC50 was at most 5 nM under setting [1] and at most 5 nM under setting [2].

For the compound `Cc1c(-c2cnn(C)c2)cnc(N2CCCC(F)(F)CC2)c1C(=O)Nc1cccc([S@](C)(=N)=O)c1` [Example 45, (R)-2-(4,4-difluoroazepan-1-yl)-4-methyl-5-(1-methyl-1H-pyrazol-4-yl)-N-(3-(S-methylsulfonimidoyl)phenyl)nicotinamide], the IC50 runs as follows: under setting [1], 50 to 100 nM; under setting [2], 50 to 100 nM.

As to `Cc1c(C#N)c(C(F)(F)F)nc(N2CCCC(F)(F)CC2)c1C(=O)Nc1cccc([S@@](C)(=O)=NC(=O)CCN)c1` [Example 58, (R)-N-(3-(N-(3-aminopropanoyl)-S-methylsulfonimidoyl)phenyl)-5-cyano-2-(4,4-difluoroazepan-1-yl)-4-methyl-6-(trifluoromethyl)nicotinamide formate], the half-inhibitory concentration (IC50) under setting [1] was at most 5 nM and the IC50 under setting [2] was at most 5 nM.

Take `C[S@@](=N)(=O)c1cccc(NC(=O)c2cc(Cl)c(C(F)(F)F)cc2N2CCO[C@@H](C(F)(F)F)C2)c1` [Example 216, 5-chloro-N-(3-((R)—S-methylsulfonimidoyl)phenyl)-4-(trifluoromethyl)-2-((R)-2-(trifluoromethyl)morpholino)benzamide]: the IC50 reads like this: under setting [1], 50 to 100 nM; under setting [2], 50 to 100 nM.

Regarding `Cc1c(-c2ccc(Cl)c(F)c2)cnc(N2CCCC(F)(F)CC2)c1C(=O)Nc1cccc([S@](C)(=N)=O)c1` [Example 166, (R)-5-(4-chloro-3-fluorophenyl)-2-(4,4-difluoroazepan-1-yl)-4-methyl-N-(3-(S-methylsulfonimidoyl)phenyl)nicotinamide], the IC50 under setting [1] was at most 5 nM and the IC50 under setting [2] is at most 5 nM.

In the case of `Cc1c(-c2ccc(C#N)cc2)cnc(N2CCCC(F)(F)CC2)c1C(=O)NC12CC(C(N)=O)(C1)C2` [Example 134, N-(3-carbamoylbicyclo[1.1.1]pentan-1-yl)-5-(4-cyanophenyl)-2-(4,4-difluoroazepan-1-yl)-4-methylnicotinamide], the IC50 is, setting by setting: under setting [1], above 200 nM; under setting [2], above 200 nM.

For `Cc1c(-c2cccc(F)c2)cnc(N2CCCC(F)(F)CC2)c1C(=O)Nc1cccc(S(C)(=N)=O)c1` (stereo not drawn) [Example 82, 2-(4,4-difluoroazepan-1-yl)-5-(3-fluorophenyl)-4-methyl-N-(3-(S-methylsulfonimidoyl)phenyl)nicotinamide], the 50% inhibitory concentration (IC50) by setting is: under setting [1], at most 5 nM; under setting [2], at most 5 nM.

In the case of `Cc1nc(N2CC(F)(F)C2)nc(N2CCCC(F)(F)CC2)c1C(=O)Nc1cccc([S@](C)(=N)=O)c1` [Example 158, (R)-4-(4,4-difluoroazepan-1-yl)-2-(3,3-difluoroazetidin-1-yl)-6-methyl-N-(3-(S-methylsulfonimidoyl)phenyl)pyrimidine-5-carboxamide], the IC50 lay within 50 to 100 nM under setting [1] and 50 to 100 nM under setting [2].

Turning to `Cc1c(C(F)(F)F)cnc(N2CCCC(F)(F)CC2)c1C(=O)Nc1cccc([S@](C)(=N)=O)c1` [Example 164, (R)-2-(4,4-difluoroazepan-1-yl)-4-methyl-N-(3-(S-methylsulfonimidoyl)phenyl)-5-(trifluoromethyl)nicotinamide], the half-inhibitory concentration (IC50) was at most 5 nM under setting [1] and at most 5 nM under setting [2].

Turning to `CNCC(=O)N=[S@](C)(=O)c1cccc(NC(=O)c2c(N3CCCC(F)(F)CC3)nnc(-c3cnn(C)c3)c2C)c1` [Example 72, (R)-3-(4,4-difluoroazepan-1-yl)-5-methyl-6-(1-methyl-1H-pyrazol-4-yl)-N-(3-(S-methyl-N-(methylglycyl)sulfonimidoyl)phenyl)pyridazine-4-carboxamide], the IC50 under setting [1] lay within 50 to 100 nM and the IC50 under setting [2] lay within 50 to 100 nM.

For the compound `Cc1ncc(-c2cnc(N3CCCC(F)(F)CC3)c(C(=O)Nc3cccc([S@](C)(=N)=O)c3)c2C)o1` [Example 178, (R)-2-(4,4-difluoroazepan-1-yl)-4-methyl-5-(2-methyloxazol-5-yl)-N-(3-(S-methylsulfonimidoyl)phenyl)nicotinamide], the IC50 reads like this: under setting [1], 5 to 50 nM; under setting [2], 5 to 50 nM.

On to `Cc1c(C(F)(F)F)nnc(N2CCCC(F)(F)CC2)c1C(=O)Nc1cccc([S@@](C)(=O)=NC(=O)CN)c1` [Example 177, (R)-3-(4,4-difluoroazepan-1-yl)-N-(3-(N-glycyl-S-methylsulfonimidoyl)phenyl)-5-methyl-6-(trifluoromethyl)pyridazine-4-carboxamide], for which the IC50 reads like this: under setting [1], at most 5 nM; under setting [2], at most 5 nM.

Consider `Cc1nc(N2CCCC(F)(F)CC2)c(C(=O)Nc2ccnc(S(=N)(N)=O)c2)cc1C(F)(F)F` (stereo not drawn) [Example 114, 2-(4,4-difluoroazepan-1-yl)-6-methyl-N-(2-sulfamidimidoylpyridin-4-yl)-5-(trifluoromethyl)nicotinamide], for which the IC50 by setting is: under setting [1], at most 5 nM; under setting [2], at most 5 nM.

Regarding `Cc1c(-c2ccc(C#N)cc2)cnc(N2CCCC(F)(F)CC2)c1C(=O)Nc1cccc([S@](C)(=N)=O)c1` [Example 49, (R)-5-(4-cyanophenyl)-2-(4,4-difluoroazepan-1-yl)-4-methyl-N-(3-(S-methylsulfonimidoyl)phenyl)nicotinamide], the half-inhibitory concentration (IC50) reads like this: under setting [1], at most 5 nM; under setting [2], at most 5 nM.

For the compound `Cc1n[nH]c(C)c1-c1cnc(N2CCCC(F)(F)CC2)c(C(=O)Nc2cccc([S@](C)(=N)=O)c2)c1C` [Example 152, (R)-2-(4,4-difluoroazepan-1-yl)-5-(3,5-dimethyl-1H-pyrazol-4-yl)-4-methyl-N-(3-(S-methylsulfonimidoyl)phenyl)nicotinamide], the IC50 runs as follows: under setting [1], above 200 nM; under setting [2], above 200 nM.

In the case of `Cc1c(C(F)(F)F)nnc(N2CCCC(F)(F)CC2)c1C(=O)Nc1cccc([S@](C)(=N)=O)c1` [Example 28, (R)-3-(4,4-Difluoroazepan-1-yl)-5-methyl-N-(3-(S-methylsulfonimidoyl)phenyl)-6-(trifluoromethyl)pyridazine-4-carboxamide], the IC50 lay within 5 to 50 nM under setting [1] and 5 to 50 nM under setting [2].

Take `Cc1c(C(F)(F)F)cnc(N2CCCC(F)(F)CC2)c1C(=O)Nc1cccc([S@@](C)(=O)=NC(=O)C2(N)CCC2)c1` [Example 180, (R)-N-(3-(N-(1-aminocyclobutane-1-carbonyl)-S-methylsulfonimidoyl)phenyl)-2-(4,4-difluoroazepan-1-yl)-4-methyl-5-(trifluoromethyl)nicotinamide]: the IC50 under setting [1] was at most 5 nM and the half-maximal inhibitory concentration (IC50) under setting [2] was at most 5 nM.
